Measurements reported in the supplement of paper PMC10307832.

Tests used:
Test in all cases: relative viability (nuclei count vs DMSO), 5 days (fraction); higher = more cells survive
[1] = system: NCI-H1648
Procedure, shortened: (§1)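 Lung cancer cell lines were pin-tool dosed in 1536-well plates on the day after seeding, with either a lone drug or a fixed anchor-drug dose plus five library-drug doses (not always all listed) in √10 steps. Nuclei were counted on 4× images after 5 days. Relative viability is the ratio of treated-well to vehicle-well nuclei counts, with each value a median of duplicate plates.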

[2] = system: NCI-H1623
Procedure, shortened: as §1

[3] = system: NCI-H596
Procedure, shortened: as §1

[4] = system: IA-LM
Procedure, shortened: as §1

[5] = system: NCI-H1703
Procedure, shortened: as §1

[6] = system: A549
Procedure, shortened: as §1

[7] = system: EBC-1
Procedure, shortened: as §1

[8] = system: NCI-H1299
Procedure, shortened: as §1

[9] = system: Calu-6
Procedure, shortened: as §1

`CC(C)Oc1cc(Nc2nc(N[C@@H](C)c3ccc(F)cn3)ncc2Cl)n[nH]1` [AZ23] + Cc1cc(Nc2cc(N3CCN(C)CC3)nc(Sc3ccc(NC(=O)C4CC4)cc3)n2)n[nH]1 [Tozasertib] (partner 0.1 µM) showed a relative viability ([1]; first compound 0.03162 µM) of 0.542, a relative viability ([1]; first compound 0.3162 µM) of 0.502 and a relative viability ([2]; first compound 0.01 µM) of 0.402. It also gave a relative viability ([2]; first compound 0.03162 µM) of 0.427, a relative viability ([2]; first compound 0.3162 µM) of 0.504 and a relative viability ([3]; first compound 0.01 µM) of 1. For the same compound, the relative viability ([3]; first compound 0.03162 µM) was 0.826 and the relative viability ([3]; first compound 0.3162 µM) was 0.827.
`CC(C)Oc1cc(Nc2nc(N[C@@H](C)c3ccc(F)cn3)ncc2Cl)n[nH]1` [AZ23] + COc1cc2c(Oc3ccc(NC(=O)C4(C(=O)Nc5ccc(F)cc5)CC4)cc3F)ccnc2cc1OCCCN1CCOCC1 [Foretinib] (partner 0.25 µM) gave a relative viability ([2]; first compound 0.01 µM) of 0.712, a relative viability ([2]; first compound 0.03162 µM) of 0.924 and a relative viability ([2]; first compound 0.3162 µM) of 0.966. It also gave a relative viability ([4]; first compound 0.01 µM) of 1.35, a relative viability ([4]; first compound 0.03162 µM) of 1.17 and a relative viability ([4]; first compound 0.3162 µM) of 1.33. For the same compound, the relative viability ([5]; first compound 0.01 µM) was 0.331, the relative viability ([5]; first compound 0.03162 µM) was 0.342 and the relative viability ([5]; first compound 0.3162 µM) was 0.314. It also gave a relative viability ([3]; first compound 0.01 µM) of 0.89, a relative viability ([3]; first compound 0.03162 µM) of 0.877 and a relative viability ([3]; first compound 0.3162 µM) of 0.737. The relative viability ([6]; first compound 0.01 µM) was 1.01, the relative viability ([6]; first compound 0.03162 µM) was 1.03 and the relative viability ([6]; first compound 0.3162 µM) was 1.08. It also gave a relative viability ([7]; first compound 0.01 µM) of 0.103, a relative viability ([7]; first compound 0.03162 µM) of 0.105 and a relative viability ([7]; first compound 0.3162 µM) of 0.0863. The relative viability ([8]; first compound 0.01 µM) was 1.19, the relative viability ([8]; first compound 0.03162 µM) was 1.16 and the relative viability ([8]; first compound 0.3162 µM) was 1.18. For the same compound, the relative viability ([9]; first compound 0.03162 µM) was 0.923 and the relative viability ([9]; first compound 0.3162 µM) was 0.867.
For `COc1cc(N2CCC(C(N)=O)CC2)ccc1Nc1nc(N)c(Cl)c(Nc2ccccc2S(=O)(=O)C(C)C)n1` [HG-5-88-01] + Cc1cc(Nc2cc(N3CCN(C)CC3)nc(Sc3ccc(NC(=O)C4CC4)cc3)n2)n[nH]1 [Tozasertib] (partner 0.1 µM), the relative viability ([1]; first compound 0.04 µM) was 0.406, the relative viability ([1]; first compound 0.1265 µM) was 0.472 and the relative viability ([1]; first compound 0.4 µM) was 0.43. For the same compound, the relative viability ([1]; first compound 1.265 µM) was 0.183, the relative viability ([1]; first compound 4 µM) was 0.329 and the relative viability ([2]; first compound 0.04 µM) was 0.512. It also gave a relative viability ([2]; first compound 0.1265 µM) of 0.449, a relative viability ([2]; first compound 0.4 µM) of 0.399 and a relative viability ([2]; first compound 4 µM) of 0.377. The relative viability ([3]; first compound 0.04 µM) was 0.955, the relative viability ([3]; first compound 0.1265 µM) was 0.907 and the relative viability ([3]; first compound 0.4 µM) was 0.877. The relative viability ([3]; first compound 1.265 µM) was 1.09 and the relative viability ([3]; first compound 4 µM) was 1.
In the case of `C[C@@H]1CN(CC(=O)Nc2ccc3c(c2)Cc2cccc(-c4cc(=O)cc(N5CCOCC5)o4)c2S3)C[C@H](C)O1` + N=C(N)NC(=N)NCCc1ccccc1 [Phenformin] (partner 250 µM), the relative viability ([2]; first compound 0.04 µM) is reported as 0.523, the relative viability ([2]; first compound 0.1265 µM) is reported as 0.617 and the relative viability ([2]; first compound 0.4 µM) is reported as 0.54. For the same compound, the relative viability ([2]; first compound 4 µM) was 0.61, the relative viability ([3]; first compound 0.04 µM) was 0.792 and the relative viability ([3]; first compound 0.1265 µM) was 0.658. The relative viability ([3]; first compound 0.4 µM) was 0.635, the relative viability ([3]; first compound 4 µM) was 0.757 and the relative viability ([6]; first compound 0.04 µM) was 0.106. The relative viability ([6]; first compound 0.1265 µM) was 0.197, the relative viability ([6]; first compound 0.4 µM) was 0.252 and the relative viability ([6]; first compound 4 µM) was 0.138.
`Clc1ccc(Nc2nnc(Cc3ccncc3)c3ccccc23)cc1` [Vatalanib] + Cc1cc(Nc2cc(N3CCN(C)CC3)nc(Sc3ccc(NC(=O)C4CC4)cc3)n2)n[nH]1 [Tozasertib] (partner 0.1 µM) showed a relative viability ([1]; first compound 0.04 µM) of 0.581, a relative viability ([1]; first compound 0.1265 µM) of 0.442 and a relative viability ([1]; first compound 0.4 µM) of 0.483. For the same compound, the relative viability ([1]; first compound 1.265 µM) was 0.523, the relative viability ([1]; first compound 4 µM) was 0.419 and the relative viability ([2]; first compound 0.04 µM) was 0.415. The relative viability ([2]; first compound 0.1265 µM) was 0.435, the relative viability ([2]; first compound 0.4 µM) was 0.455 and the relative viability ([2]; first compound 1.265 µM) was 0.374. For the same compound, the relative viability ([2]; first compound 4 µM) was 0.393, the relative viability ([3]; first compound 0.04 µM) was 0.783 and the relative viability ([3]; first compound 0.1265 µM) was 0.821. For the same compound, the relative viability ([3]; first compound 0.4 µM) was 0.831, the relative viability ([3]; first compound 1.265 µM) was 0.747 and the relative viability ([3]; first compound 4 µM) was 0.952.
Work on `Clc1ccc(Nc2nnc(Cc3ccncc3)c3ccccc23)cc1` [Vatalanib] + N=C(N)NC(=N)NCCc1ccccc1 [Phenformin] (partner 250 µM) yielded a relative viability ([2]; first compound 0.04 µM) of 0.584, a relative viability ([2]; first compound 0.1265 µM) of 0.577 and a relative viability ([2]; first compound 0.4 µM) of 0.514. It also gave a relative viability ([2]; first compound 1.265 µM) of 0.581, a relative viability ([2]; first compound 4 µM) of 0.524 and a relative viability ([3]; first compound 0.04 µM) of 0.715. It also gave a relative viability ([3]; first compound 0.1265 µM) of 0.874, a relative viability ([3]; first compound 0.4 µM) of 0.769 and a relative viability ([3]; first compound 1.265 µM) of 0.767. It also gave a relative viability ([3]; first compound 4 µM) of 0.662, a relative viability ([6]; first compound 0.04 µM) of 0.206 and a relative viability ([6]; first compound 0.1265 µM) of 0.131. It also gave a relative viability ([6]; first compound 0.4 µM) of 0.104, a relative viability ([6]; first compound 1.265 µM) of 0.143 and a relative viability ([6]; first compound 4 µM) of 0.154.
In the case of `C[C@@H]1CN(CC(=O)Nc2ccc3c(c2)Cc2cccc(-c4cc(=O)cc(N5CCOCC5)o4)c2S3)C[C@H](C)O1` + COc1cc2c(Oc3ccc(NC(=O)C4(C(=O)Nc5ccc(F)cc5)CC4)cc3F)ccnc2cc1OCCCN1CCOCC1 [Foretinib] (partner 0.25 µM), the relative viability ([2]; first compound 0.04 µM) is reported as 0.771, the relative viability ([2]; first compound 0.1265 µM) is reported as 0.837 and the relative viability ([2]; first compound 0.4 µM) is reported as 0.88. The relative viability ([2]; first compound 4 µM) was 0.786, the relative viability ([4]; first compound 0.04 µM) was 1.19 and the relative viability ([4]; first compound 0.1265 µM) was 1.37. The relative viability ([4]; first compound 0.4 µM) was 1.27, the relative viability ([4]; first compound 4 µM) was 0.56 and the relative viability ([5]; first compound 0.04 µM) was 0.367. It also gave a relative viability ([5]; first compound 0.1265 µM) of 0.299, a relative viability ([5]; first compound 0.4 µM) of 0.36 and a relative viability ([5]; first compound 4 µM) of 0.295. For the same compound, the relative viability ([3]; first compound 0.04 µM) was 0.926, the relative viability ([3]; first compound 0.1265 µM) was 0.835 and the relative viability ([3]; first compound 0.4 µM) was 0.909. It also gave a relative viability ([3]; first compound 4 µM) of 0.87, a relative viability ([6]; first compound 0.04 µM) of 0.818 and a relative viability ([6]; first compound 0.1265 µM) of 1.01. For the same compound, the relative viability ([6]; first compound 0.4 µM) was 0.895, the relative viability ([6]; first compound 4 µM) was 0.823 and the relative viability ([7]; first compound 0.04 µM) was 0.119. It also gave a relative viability ([7]; first compound 0.1265 µM) of 0.113, a relative viability ([7]; first compound 0.4 µM) of 0.102 and a relative viability ([7]; first compound 4 µM) of 0.129. The relative viability ([8]; first compound 0.04 µM) was 1.11, the relative viability ([8]; first compound 0.1265 µM) was 1.1 and the relative viability ([8]; first compound 0.4 µM) was 1.06. The relative viability ([8]; first compound 4 µM) was 0.995, the relative viability ([9]; first compound 0.04 µM) was 0.859 and the relative viability ([9]; first compound 0.1265 µM) was 0.841. For the same compound, the relative viability ([9]; first compound 0.4 µM) was 0.896 and the relative viability ([9]; first compound 4 µM) was 0.639.
`C[C@@H]1CN(CC(=O)Nc2ccc3c(c2)Cc2cccc(-c4cc(=O)cc(N5CCOCC5)o4)c2S3)C[C@H](C)O1` + Cc1cc(Nc2cc(N3CCN(C)CC3)nc(Sc3ccc(NC(=O)C4CC4)cc3)n2)n[nH]1 [Tozasertib] (partner 0.1 µM) showed a relative viability ([1]; first compound 0.04 µM) of 0.3, a relative viability ([1]; first compound 0.1265 µM) of 0.421 and a relative viability ([1]; first compound 0.4 µM) of 0.542. It also gave a relative viability ([1]; first compound 4 µM) of 0.395, a relative viability ([2]; first compound 0.04 µM) of 0.461 and a relative viability ([2]; first compound 0.1265 µM) of 0.409. The relative viability ([2]; first compound 0.4 µM) was 0.406, the relative viability ([2]; first compound 4 µM) was 0.417 and the relative viability ([3]; first compound 0.04 µM) was 0.934. It also gave a relative viability ([3]; first compound 0.1265 µM) of 1.13, a relative viability ([3]; first compound 0.4 µM) of 0.759 and a relative viability ([3]; first compound 4 µM) of 0.762.
In the case of `COc1cc(N2CCC(C(N)=O)CC2)ccc1Nc1nc(N)c(Cl)c(Nc2ccccc2S(=O)(=O)C(C)C)n1` [HG-5-88-01] + COc1cccc2cc(-c3nc([C@H]4CC[C@H](C(=O)O)CC4)n4ncnc(N)c34)[nH]c12 [OSI-027] (partner 0.5 µM), the relative viability ([1]; first compound 0.04 µM) is reported as 0.257, the relative viability ([1]; first compound 0.1265 µM) is reported as 0.258 and the relative viability ([1]; first compound 0.4 µM) is reported as 0.259. For the same compound, the relative viability ([1]; first compound 1.265 µM) was 0.28, the relative viability ([1]; first compound 4 µM) was 0.29 and the relative viability ([2]; first compound 0.04 µM) was 0.451. For the same compound, the relative viability ([2]; first compound 0.1265 µM) was 0.378, the relative viability ([2]; first compound 0.4 µM) was 0.408 and the relative viability ([2]; first compound 4 µM) was 0.296. It also gave a relative viability ([3]; first compound 0.04 µM) of 0.61, a relative viability ([3]; first compound 0.1265 µM) of 0.693 and a relative viability ([3]; first compound 0.4 µM) of 0.729. The relative viability ([3]; first compound 1.265 µM) was 0.59 and the relative viability ([3]; first compound 4 µM) was 0.393.
